According to article PMC8119899, “A Single Mutation in the Outer Lipid-Facing Helix of a Pentameric Ligand-Gated Ion Channel Affects Channel Function Through a Radially-Propagating Mechanism” (Frontiers in Molecular Biosciences, 2021):

Target: T1, 5-HT3A receptor F242A (Mus musculus, UniProt P23979, F269A)
T1 construct: expressed in transfected cells; host or cells: HEK293
T1 sequence (P23979 24-489 F269A): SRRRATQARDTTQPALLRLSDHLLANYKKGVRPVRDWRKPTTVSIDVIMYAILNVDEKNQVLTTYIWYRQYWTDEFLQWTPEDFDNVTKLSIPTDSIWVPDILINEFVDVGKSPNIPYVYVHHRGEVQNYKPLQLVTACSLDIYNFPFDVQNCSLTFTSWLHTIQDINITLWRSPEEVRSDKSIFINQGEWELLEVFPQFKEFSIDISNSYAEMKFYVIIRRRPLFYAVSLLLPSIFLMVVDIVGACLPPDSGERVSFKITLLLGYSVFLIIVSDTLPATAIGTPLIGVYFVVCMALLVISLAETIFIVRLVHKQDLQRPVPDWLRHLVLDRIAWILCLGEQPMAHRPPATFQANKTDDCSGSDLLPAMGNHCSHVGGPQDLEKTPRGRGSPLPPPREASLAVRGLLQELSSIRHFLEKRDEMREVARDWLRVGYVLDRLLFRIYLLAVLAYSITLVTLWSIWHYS
Test: FlexStation membrane potential dye, 5-HT response, F242A receptor in HEK293 cells
Format: cell-based
Conditions: mean and SEM, n ≥ 3
Method: The mouse 5-HT3A cDNA (Q6J1J7) in pcDNA3.1 (for HEK cell transfection) or pGEMHE (for RNA production) was modified by QuikChange site-directed mutagenesis (Agilent Technologies) to create point mutants (verified by sequencing).
Human embryonic kidney (HEK) 293 cells were maintained at 37 °C at 5% CO2 in a humidified atmosphere, in Dulbecco's Modified Eagle's Medium/Nutrient Mix F12 (1:1) (Invitrogen, Paisley, UK) with GlutaMAX^TM and 10% fetal bovine serum (GE Healthcare) (DMEM/FBS) and passaged when confluent.
As described previously (Price and Lummis, [2005]) cells were incubated for 45 min with fluorescent membrane potential-sensitive dye (Membrane Potential Blue kit, Molecular Devices) diluted in Flex buffer (10 mM HEPES, 115 mM NaCl, 1 mM KCl, 1 mM CaCl2, 1 mM MgCl2, and 10 mM glucose, pH 7.4), and subsequently assayed at room temperature for 180 s, with readings every 2 s. […] (log of the concentration of ligand), a is the minimum response, b is the maximum response, and nH is the Hill slope.

`NCCc1c[nH]c2ccc(O)cc12` [5-HT] was tested, and the nH was 3.8 ± 0.8.
